≈ marks a conversion by molar mass, not a printed value.
Columns and labels:
Assay type in all cases: cell-based
[1] = tested on: Streptococcus faecalis CNCM 5855; assay: Minimum bactericidal concentration, 30 min contact, strain 2; settings: Enterococcus faecalis, CNCM5855, 0.5 h; Streptococcus faecalis CNCM 5855; contact time 30 minutes; solubilizing agent given per product; read-out: MBC, strain 2
Method: (§1) A bacterial inoculum is brought into contact with different dilutions of the test product for a limited time of 30 minutes. When the contact time has ended, an aliquot of the bacterial suspension/product mixture is deposited on the surface of a gelose culture medium containing an agent for neutralizing the antibacterial activity of the product. The bactericidal concentration chosen is the minimum concentration of the product which is necessary to prevent bacterial growth. This concentration is expressed in μg/ml.
2 - Streptococcus faecalis CNCM 5855;
(§2) The strains are maintained on Tryptic Soy Agar (TSA) marketed by Difco.
(§3) After 24 hours of culture at 37° C., the microbial growth is harvested with the aid of glass beads and 10 ml of diluent containing 1 g of tryptone and 8.5 g of sodium chloride in 1000 ml of distilled water. The suspension formed is shaken and the percentage transmission of light at 620 nm is measured on a spectrophotometer:
(§4) The bacterial inoculum corresponds to a 1/20 dilution of this bacterial suspension.
(§5) Plates containing cups receive different dilutions of the test product. These dilutions of the test product are brought into contact with the different bacterial suspensions using a multiple-site inoculator. After a contact time of 30 minutes, aliquots are transferred by means of this inoculator to the surface of a gelose medium (TSA) placed in petri dishes and containing an agent for neutralizing the activity, namely 20 g of lubrol W, 2.5 g of Tween 80, 2.5 g of sodium thiosulfate and 1% of egg yolk in 1000 ml of TSA (Difco). A reference for the efficacy of the neutralizing agent is prepared for each test product by depositing an aliquot of the dilution of the test product on the surface of the culture medium. After drying, the corresponding inoculum is deposited in the same place. A reference inoculum is prepared on a gelose medium with and without neutralizing agent. The results are read off after 48 hours of incubation at 37° C.
(§6) They indicate the minimum bactericidal concentrations (MBC) for strains 1, 2, 3 and 4 and the minimum fungicidal concentrations (MFC) for strain 5.

[2] = tested on: Escherichia coli CNCM 54127; assay: Minimum bactericidal concentration, 30 min contact, strain 4; settings: CNCM54127, 0.5 h; Escherichia coli CNCM 54127; contact time 30 minutes; solubilizing agent given per product; read-out: MBC, strain 4
Method: as §1
4 - Escherichia coli CNCM 54127.
as §2, §3, §4, §5, §6

[3] = tested on: Pseudomonas aeruginosa CNCM A22; assay: Minimum bactericidal concentration, 30 min contact, strain 3; settings: CNCMA22, 0.5 h; Pseudomonas aeruginosa CNCM A22; contact time 30 minutes; solubilizing agent given per product; read-out: MBC, strain 3
Method: as §1
3 - Pseudomonas aeruginosa CNCM A22;
as §2, §3, §4, §5, §6

[4] = tested on: Staphylococcus aureus CNCM 53154; assay: Minimum bactericidal concentration, 30 min contact, strain 1; settings: CNCM53154, 0.5 h; Staphylococcus aureus CNCM 53154; contact time 30 minutes; solubilizing agent (water, TEG or acetone) given per product; read-out: MBC, strain 1
Method: as §1
1 - Staphylococcus aureus CNCM 53154;
as §2, §3, §4, §5, §6

[5] = tested on: Candida albicans CNCM 1180; assay: Minimum fungicidal concentration, strain 5; settings: CNCM1180, 0.5 h; Candida albicans CNCM 1180; contact time 30 minutes; solubilizing agent given per product; read-out: MFC, strain 5
Method: as §1, §5
The antifungal activity of the products according to the invention was also determined using the method described above. The representative strain of yeast selected for the study was Candida albicans CNCM 1180 (strain 5).
This is maintained on a gelose medium of Sabouraud Dextrose Agar, marketed by Difco. The technique is identical to that described for studying the antibacterial activity. After 48 hours of culture at 37° C., the microbial growth is harvested with the aid of glass beads and 5 ml of diluent containing 1 g of tryptone and 8.5 g of sodium chloride in 1000 ml of distilled water; a further 5 ml of the diluent are then added. In a spectrophotometer, this suspension gives a 2 to 3% transmission of light at 620 nm. The inoculum corresponds to a 1/10 dilution of this microbial suspension. A 1/100 dilution of this suspension, observed between a microscope slide and cover slip through a lens of magnification 40, should show 10 cells per field, which corresponds to 1 000 000 yeasts per ml.
as §6

Structure (SMILES) | MBC [1] | MBC [2] | MBC [3] | MBC [4] | MFC [5]
OC(COc1ccc(Br)cc1)CN1CCC(Cc2ccccc2)CC1 (racemic) [SR 44251 A] | 100 µg/mL (≈ 247 µM) | 100 µg/mL (≈ 247 µM) | 100 µg/mL (≈ 247 µM) | 100 µg/mL (≈ 247 µM) | –
OC(COc1ccc(Cl)cc1Cl)CN1CCC(Cc2ccccc2)CC1 (racemic) [SR 44333 B, 1-(4-Benzylpiperidino)-3-(2,4-dichlorophenoxy)propan-2-ol methanesulfonate] | 50 µg/mL | 50 µg/mL | 50 µg/mL | 50 µg/mL | 50 µg/mL
OC(COc1ccc(Cl)cc1)CN1CCC(Cc2ccccc2)CC1 (racemic) [SR 44334 A] | 100 µg/mL (≈ 278 µM) | 100 µg/mL (≈ 278 µM) | 100 µg/mL (≈ 278 µM) | 500 µg/mL (≈ 1390 µM) | –
OC(CSc1ccc(Cl)c(Cl)c1)CN1CCC(Cc2ccccc2)CC1 (racemic) [SR 44473 A] | 50 µg/mL (≈ 122 µM) | 50 µg/mL (≈ 122 µM) | 50 µg/mL (≈ 122 µM) | 1000 µg/mL (≈ 2440 µM) | 50 µg/mL (≈ 122 µM)
OC(COc1cc(Cl)c(Cl)cc1Cl)CN1CCC(Cc2ccccc2)CC1 (racemic) [SR 44560 A] | 50 µg/mL (≈ 117 µM) | 5 µg/mL (≈ 11.7 µM) | 50 µg/mL (≈ 117 µM) | 10 µg/mL (≈ 23.3 µM) | 50 µg/mL (≈ 117 µM)
OC(COc1cc(Cl)ccc1Oc1ccc(Cl)cc1Cl)CN1CCC(Cc2ccccc2)CC1 (racemic) [SR 44641 A] | 10 µg/mL (≈ 19.2 µM) | 5 µg/mL (≈ 9.6 µM) | 10 µg/mL (≈ 19.2 µM) | 50 µg/mL (≈ 96 µM) | 50 µg/mL (≈ 96 µM)
OC(COc1cccc2ccccc12)CN1CCC(Cc2ccccc2)CC1 (racemic) [SR 44644 A] | 50 µg/mL (≈ 133 µM) | 50 µg/mL (≈ 133 µM) | 50 µg/mL (≈ 133 µM) | 50 µg/mL (≈ 133 µM) | 50 µg/mL (≈ 133 µM)
CC(C)(C)c1ccc(OCC(O)CN2CCC(Cc3ccccc3)CC2)cc1 (racemic) [SR 44648 A] | 200 µg/mL (≈ 524 µM) | 50 µg/mL (≈ 131 µM) | 50 µg/mL (≈ 131 µM) | 200 µg/mL (≈ 524 µM) | 200 µg/mL (≈ 524 µM)
OC(COc1cc(Br)c2ccccc2c1)CN1CCC(Cc2ccccc2)CC1 (racemic) [SR 44674 A] | 10 µg/mL (≈ 22 µM) | 10 µg/mL (≈ 22 µM) | 10 µg/mL (≈ 22 µM) | 10 µg/mL (≈ 22 µM) | 200 µg/mL (≈ 440 µM)
OC(COc1ccccc1-c1ccccc1)CN1CCC(Cc2ccccc2)CC1 (racemic) [SR 44676 A] | 50 µg/mL (≈ 125 µM) | 10 µg/mL (≈ 24.9 µM) | 10 µg/mL (≈ 24.9 µM) | 200 µg/mL (≈ 498 µM) | 50 µg/mL (≈ 125 µM)
OC(COc1ccc(-c2ccccc2)cc1)CN1CCC(Cc2ccccc2)CC1 (racemic) [SR 44715 A] | 50 µg/mL (≈ 125 µM) | 50 µg/mL (≈ 125 µM) | 50 µg/mL (≈ 125 µM) | 50 µg/mL (≈ 125 µM) | 200 µg/mL (≈ 498 µM)
OC(COc1ccc(Cl)cc1Cc1ccccc1)CN1CCC(Cc2ccccc2)CC1 (racemic) [SR 44719 B] | 5 µg/mL (≈ 11.1 µM) | 5 µg/mL (≈ 11.1 µM) | 10 µg/mL (≈ 22.2 µM) | 10 µg/mL (≈ 22.2 µM) | 10 µg/mL (≈ 22.2 µM)
OC(COc1ccc2ccccc2c1)CN1CCC(Cc2ccccc2)CC1 (racemic) [SR 44807 A] | 1000 µg/mL (≈ 2660 µM) | 200 µg/mL (≈ 533 µM) | 200 µg/mL (≈ 533 µM) | 1000 µg/mL (≈ 2660 µM) | 1000 µg/mL (≈ 2660 µM)

— patent US5036077A, “1-(benzylpiperidino)propan-2-ol derivatives, their preparation, their use as antimicrobial agents and the products in which they are present” (Sanofi, priority 1987, dated 1991)
